Drawing on patent publication US20220056019A1, “FARNESOID X RECEPTOR AGONISTS AND USES THEREOF” (Metacrine, Inc., priority 2018, published 2022), this text covers EC50 for 19 molecules.

Each structure is given as a SMILES string.

This assay has as its target T1, hFXR (Homo sapiens, UniProt Q96RI1).
T1 construct: expressed in transfected cells; host or cells: CV-1 cells
T1 sequence (Q96RI1 1-486): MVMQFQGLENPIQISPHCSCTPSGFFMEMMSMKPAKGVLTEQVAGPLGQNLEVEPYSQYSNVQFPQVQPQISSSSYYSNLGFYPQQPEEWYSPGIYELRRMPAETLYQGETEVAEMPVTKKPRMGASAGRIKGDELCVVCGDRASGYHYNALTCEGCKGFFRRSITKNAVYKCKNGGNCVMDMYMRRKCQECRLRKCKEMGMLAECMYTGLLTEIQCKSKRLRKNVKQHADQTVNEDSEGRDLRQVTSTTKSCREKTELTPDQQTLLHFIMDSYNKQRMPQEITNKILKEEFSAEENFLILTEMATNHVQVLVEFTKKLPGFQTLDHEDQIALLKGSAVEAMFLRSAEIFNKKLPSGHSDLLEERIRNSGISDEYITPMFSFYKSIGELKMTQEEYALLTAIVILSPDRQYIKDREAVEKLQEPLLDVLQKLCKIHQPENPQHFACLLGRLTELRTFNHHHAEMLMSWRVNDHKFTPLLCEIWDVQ
T1 sequence (P19793 1-462 partner): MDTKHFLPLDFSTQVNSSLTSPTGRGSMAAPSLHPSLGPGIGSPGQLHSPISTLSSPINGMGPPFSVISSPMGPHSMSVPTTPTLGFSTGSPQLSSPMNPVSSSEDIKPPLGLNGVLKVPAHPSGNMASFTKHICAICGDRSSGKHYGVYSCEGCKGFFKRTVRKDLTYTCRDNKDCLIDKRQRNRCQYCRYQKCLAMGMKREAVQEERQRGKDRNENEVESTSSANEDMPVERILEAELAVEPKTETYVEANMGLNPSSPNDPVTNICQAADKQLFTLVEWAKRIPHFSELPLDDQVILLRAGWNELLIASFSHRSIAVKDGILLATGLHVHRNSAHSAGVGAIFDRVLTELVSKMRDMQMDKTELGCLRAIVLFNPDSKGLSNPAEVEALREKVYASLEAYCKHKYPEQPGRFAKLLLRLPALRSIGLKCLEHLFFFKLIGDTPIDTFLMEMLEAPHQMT
Put plainly: In Vitro FXR Assay (TK): TK-ECRE-luc reporter in transfected CV-1 cells. Format: cell-based. The settings on record: 18 hrs incubation, luminescence. Summed up:
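Luciferase read-out from lysed CV-1 cells carrying transfected hFXR, hRXR, TK-ECRE-luc and pCMX-YFP. Test compounds, DMSO serial dilutions, were incubated with the cells for 18 h before lysis. Cells grew in charcoal-stripped serum medium.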
Regarding `COc1ccc(C23CCC(CN(c4cccc(-c5cnn(C(C)C)c5)c4)C(=O)[C@H]4CC[C@H](OC(=O)N5CC(O)C5)CC4)(CC2)CC3)cc1C` [Compound 25.02, 4-((3-(1-Isopropyl-1H-pyrazol-4-yl)phenyl)((4-(4-methoxy-3-methylphenyl)bicyclo[2.2.2]octan-1-yl)methyl)carbamoyl)cyclohexyl trans-3-hydroxyazetidine-1-carboxylate], the half-maximal effective concentration (EC50) (usually the concentration that produces a half-maximal response) is at most 50 nM. Next, `CCOc1ncc(-c2ccnc(N(C[C@H]3CC[C@H](c4ccc(OC)c(C)c4)CC3)C(=O)[C@H]3CC[C@H](OC(=O)N4CC(O)C4)CC3)c2)s1` [Compound 2.43, trans-4-((4-(2-Ethoxythiazol-5-yl)pyridin-2-yl)((trans-4-(4-methoxy-3-methylphenyl)cyclohexyl)methyl)carbamoyl)cyclohexyl 3-hydroxyazetidine-1-carboxylate]: at most 50 nM; `COc1ccc([C@H]2CC[C@H](CN(c3cc(-c4cnn(C(C)C)c4)ccn3)C(=O)[C@H]3CC[C@H](OC(=O)NCCCO)CC3)CC2)cc1C` [Compound 2.19, trans-4-((4-(1-Isopropyl-1H-pyrazol-4-yl)pyridin-2-yl) ((trans-4-(4-methoxy-3-methylphenyl)cyclohexyl)methyl)carbamoyl) cyclohexyl(3-hydroxypropyl)carbamate]: at most 50 nM; `COc1ccc([C@H]2CC[C@H](CN(c3cc(-c4cnn(C(C)C)c4)ccn3)C(=O)[C@H]3CC[C@H](OC(=O)NC[C@@H](F)CO)CC3)CC2)cc1C` [Compound 2.41, trans-4-((4-(1-Isopropyl-1H-pyrazol-4-yl)pyridin-2-yl) (((trans)-4-(4-methoxy-3-methylphenyl)cyclohexyl)methyl)carbamoyl) cyclohexyl((R)-2-fluoro-3-hydroxypropyl)carbamate]: at most 50 nM.

As for `COc1ccc(C23CCC(CN(c4cc(-c5cnn(C(C)C)c5)ncn4)C(=O)[C@H]4CC[C@H](OC(=O)N5CC(O)C5)CC4)(CC2)CC3)cc1C` [Compound 23, 4-((6-(1-Isopropyl-1H-pyrazol-4-yl)pyrimidin-4-yl)((4-(4-methoxy-3-methylphenyl)bicyclo[2.2.2]octan-1-yl)methyl)carbamoyl)(trans-cyclohexyl) 3-hydroxyazetidine-1-carboxylate], the half-maximal effective concentration (EC50) is at most 50 nM. With `COc1ccc(C23CCC(CN(c4cc(-c5cnn(C(C)C)c5)ncn4)C(=O)[C@H]4CC[C@H](OC(=O)N5CC(C#N)C5)CC4)(CC2)CC3)cc1C` [Compound 23.22, 4-((6-(1-Isopropyl-1H-pyrazol-4-yl)pyrimidin-4-yl)((4-(4-methoxy-3-methylphenyl)bi-cyclo[2.2.2]octan-1-yl)methyl)carbamoyl(trans-cyclohexyl) 3-cyanoazetidine-1-carboxylate], the EC50 lay in the range of 50 to 1000 nM. Take `COc1ccc([C@H]2CC[C@H](CN(c3cc(-c4coc(C(C)C)n4)ccn3)C(=O)[C@H]3CC[C@H](OC(=O)NC(C)C)CC3)CC2)cc1C` [Compound 2.44, trans-4-((4-(2-Isopropyloxazol-4-yl)pyridin-2-yl)(((trans)-4-(4-methoxy-3-methylphenyl)cyclohexyl)methyl)carbamoyl) cyclohexyl isopropylcarbamate]: the EC50 is at most 50 nM.

`COc1ccc([C@H]2CC[C@H](CN(c3cccc(-c4cnn(C(C)C)c4)c3)C(=O)[C@H]3CC[C@H](OC(=O)NCC(F)(F)CO)CC3)CC2)cc1C` [Compound 5.02, trans-4-((3-(1-Isopropyl-1H-pyrazol-4-yl)phenyl)(((trans)-4-(4-methoxy-3-methylphenyl)cyclohexyl)methyl)carbamoyl)cyclohexyl (2,2-difluoro-3-hydroxypropyl)carbamate]: the EC50 is at most 50 nM. Regarding `COc1ccc(C23CCC(CN(c4cc(-c5cnn(C(C)C)c5)ccn4)C(=O)[C@H]4CC[C@H](NC(=O)OC5CCOCC5)CC4)(CC2)CC3)cc1C` [Compound 7.03, (trans)-Tetrahydro-2H-pyran-4-yl (4-((4-(1-isopropyl-1H-pyrazol-4-yl)pyridin-2-yl)((4-(4-methoxy-3-methylphenyl)bicyclo[2.2.2]octan-1-yl)methyl)carbamoyl)cyclohexyl) carbamate], the EC50 was at most 50 nM.

`COc1ccc(C23CCC(CN(c4cc(-c5cnn(C(C)C)c5)ccn4)C(=O)[C@H]4CC[C@H](OC(=O)NCCCCO)CC4)(CC2)CC3)cc1C` [Compound 4.50, 4-((4-(1-Isopropyl-1H-pyrazol-4-yl)pyridin-2-yl) ((4-(4-methoxy-3-methylphenyl)bicyclo [2.2.2]octan-1-yl)methyl)carbamoyl)cyclohexyl(4-hydroxybutyl)trans-carbamate] gave an EC50 of at most 50 nM. The figure for `COc1ccc(C23CCC(CN(c4cc(-c5cnn(C(C)C)c5)ccn4)C(=O)[C@H]4CC[C@H](OC(=O)NCCCO)CC4)(CC2)CC3)cc1C` [Compound 4.07, 4-((4-(1-Isopropyl-1H-pyrazol-4-yl)pyridin-2-yl)((4-(4-methoxy-3-methylphenyl)bicyclo [2.2.2]octan-1-yl)methyl)carbamoyl)cyclohexyl (3-hydroxypropyl)trans-carbamate] is at most 50 nM; for `COc1ccc([C@H]2CC[C@H](CN(c3cc(-c4cnn(C(C)C)c4)ccn3)C(=O)[C@H]3CC[C@H](OC(=O)NCC(C)(C)CO)CC3)CC2)nc1C` [Compound 1.02, trans-4-((4-(1-Isopropyl-1H-pyrazol-4-yl)pyridin-2-yl) ((trans-4-(5-methoxy-6-methylpyridin-2-yl)cyclohexyl)methyl)carbamoyl) cyclohexyl (3-hydroxy-2,2-dimethylpropyl)carbamate] it is at most 50 nM; for `COc1ccc(C23CCC(CN(c4cc(-c5coc(C(C)C)n5)ccn4)C(=O)[C@H]4CC[C@H](OC(=O)NC5COC5)CC4)(CC2)CC3)cc1C` [Compound 23.04, 4-((4-(2-Isopropyloxazol-4-yl)pyridin-2-yl)((4-(4-methoxy-3-methylphenyl)bicyclo[2.2.2]octan-1-yl)methyl)carbamoyl)(trans-cyclohexyl)oxetan-3-ylcarbamate] it is at most 50 nM.

With `COCC(=O)N[C@H]1CC[C@H](C(=O)N(CC23CCC(c4ccc(OC)c(C)c4)(CC2)CC3)c2cc(-c3cnc(C4CC4)s3)ccn2)CC1` [Compound 9.07, (trans)-N-(4-(2-Cyclopropylthiazol-5-yl)pyridin-2-yl)-N-((4-(4-methoxy-3-methylphenyl)bicyclo[2.2.2]octan-1-yl)methyl)-4-(2-methoxyacetamido)cyclohexanecar-boxamide], the EC50 was at most 50 nM. For `CS(=O)(=O)c1ccc([C@H]2CC[C@H](CN(c3cccc(-c4cnc(C5CC5)s4)c3)C(=O)[C@H]3CC[C@H](OC(=O)N4CC(O)C4)CC3)CC2)cc1` [Compound 5.15, trans-4-((3-(2-Cyclopropylthiazol-5-yl)phenyl)((trans-4-(4-(methylsulfonyl)phenyl)cyclohexyl)methyl)carbamoyl)cyclohexyl 3-hydroxyazetidine-1-carboxylate], the concentration giving a half-maximal response (EC50) lay within 50 to 1000 nM. For the molecule `COCCOC(=O)N[C@H]1CC[C@H](C(=O)N(C[C@H]2CC[C@H](c3ccc(OC)c(C)c3)CC2)c2cccc(-c3cnn(C(C)C)c3)c2)CC1` [Compound 6.04, 2-Methoxyethyl (trans-4-((3-(1-isopropyl-1H-pyrazol-4-yl)phenyl)((trans-4-(4-methoxy-3-methylphenyl)cyclohexyl)meth-yl)carbamoyl)cyclohexyl)carbamate], the EC50 is at most 50 nM. For the molecule `COc1ccc(C23CCC(CN(c4cc(-c5cnn(C(C)C)c5)c(F)cn4)C(=O)[C@H]4CC[C@H](OC(=O)N5CC(O)C5)CC4)(CC2)CC3)cc1C` [Compound 26.02, 4-((5-Fluoro-4-(1-isopropyl-1H-pyrazol-4-yl)pyridin-2-yl)((4-(4-methoxy-3-methylphenyl)bicyclo[2.2.2]octan-1-yl)methyl)carbamoyl)(trans-cyclohexyl) 3-hydroxyazetidine-1-carboxylate], the EC50 was at most 50 nM. As for `COc1ccc([C@H]2CC[C@H](CN(c3cccc(-c4cnn(C(C)C)c4)c3)C(=O)[C@H]3CC[C@H](OC(=O)NCC(C)F)CC3)CC2)cc1C` (stereo partly drawn) [Compound 5.05, trans-4-((3-(1-Isopropyl-1H-pyrazol-4-yl)phenyl)(((trans)-4-(4-methoxy-3-methylphenyl)cyclohexyl)methyl)carbamoyl)cyclohexyl (2-fluoropropyl)carbamate], the half-maximal effective concentration (EC50) is at most 50 nM. Molecule `COc1ccc([C@H]2CC[C@H](CN(c3cccc(-c4cnn(C(C)C)c4)c3)C(=O)[C@H]3CC[C@H](OC(=O)N4CCN(C)CC4)CC3)CC2)cc1C#N` [Compound 5.08, trans-4-((((trans)-4-(3-Cyano-4-methoxyphenyl)cyclohexyl)methyl)(3-(1-isopropyl-1H-pyrazol-4-yl)phenyl)carbamoyl)cyclohexyl4-methylpiperazine-1-carboxylate] returned an EC50 of at most 50 nM.
